Results published in US20240425483A1, “INDOLINES AS PROTAC COMPOUNDS” (NeoPhore Limited, priority 2021, published 2024).

target: T1, PMS2 protein (Homo sapiens, UniProt P54278); assay: PROTAC screening in SW620 human colorectal carcinoma cells, PMS2 protein level by JESS Western blot; assay type: cell-based; conditions: SW-620, 24 h, 1 uM compound, normalised to actin and DMSO control, Table A1
T1 construct: host or cells: SW620 human colorectal carcinoma cells
T1 sequence (P54278 1-862): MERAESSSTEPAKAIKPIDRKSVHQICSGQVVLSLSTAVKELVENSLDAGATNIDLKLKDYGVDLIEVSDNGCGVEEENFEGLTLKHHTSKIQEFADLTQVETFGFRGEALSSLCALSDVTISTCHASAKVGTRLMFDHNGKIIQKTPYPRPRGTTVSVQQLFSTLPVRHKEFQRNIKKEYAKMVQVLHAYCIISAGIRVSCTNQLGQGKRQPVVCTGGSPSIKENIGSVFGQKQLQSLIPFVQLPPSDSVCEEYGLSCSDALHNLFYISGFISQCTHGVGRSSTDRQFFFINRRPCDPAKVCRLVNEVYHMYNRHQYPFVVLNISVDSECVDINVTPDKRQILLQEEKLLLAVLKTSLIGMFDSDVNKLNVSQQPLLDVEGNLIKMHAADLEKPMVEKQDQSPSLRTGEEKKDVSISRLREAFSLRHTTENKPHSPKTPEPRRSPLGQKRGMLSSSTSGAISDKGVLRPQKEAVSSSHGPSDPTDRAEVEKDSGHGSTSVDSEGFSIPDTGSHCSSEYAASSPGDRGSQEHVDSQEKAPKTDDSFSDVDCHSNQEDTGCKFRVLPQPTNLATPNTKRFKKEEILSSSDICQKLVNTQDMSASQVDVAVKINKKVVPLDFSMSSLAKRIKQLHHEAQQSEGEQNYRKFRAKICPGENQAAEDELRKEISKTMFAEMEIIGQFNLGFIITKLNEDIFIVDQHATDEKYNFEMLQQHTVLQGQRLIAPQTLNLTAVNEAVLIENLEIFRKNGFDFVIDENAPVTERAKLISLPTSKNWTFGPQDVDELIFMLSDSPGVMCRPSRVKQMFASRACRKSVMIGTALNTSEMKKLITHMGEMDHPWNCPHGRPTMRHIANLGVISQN
Procedure: PROTAC Screening Protocol Using SW620 Human Colorectal Carcinoma Cells
SVW620 cells (ATCC/[…]) were cultured in T75 Falcon flasks in culture media (F12/DMEM 1:1 media, 10% FCS, +L-G supplement). Cells were split twice a week, for a maximum of 6 weeks. Media was aspirated, and cells washed with 10 mL of sterile PBS. PBS was aspirated, and cells incubated with 1.5 mL TrypLE for up to 5 minutes at 37° C., 5% CO2. Once cells had detached, TrypLE was neutralised with 10 mL culture media and cells mixed 1:1 with Trypan blue and quantified using a Luna cell counter. Cells were then seeded into fresh T75 flasks with 1×10^6 cells and 10 mL culture media.
SW620 cells, cultured and counted as above, were used to seed 12 well plates at a density of 1.5×10^5 cells/well and incubated overnight at 37° C., 5% CO2. Test compounds were solubilized in DMSO to a stock concentration of 10 mM and serially diluted in DMSO and media to their test concentration; the final concentration of DMSO was 0.1% (v/v). Each concentration was tested in triplicate. SW620 cells were incubated with test compound for 24 hours at 37° C., 5% CO2. Media was aspirated from each well, and each well washed with 1 mL ice cold PBS. PBS was then aspirated, and 50 μL of cold lysis buffer (RIPA buffer supplemented with 1× protease inhibitors, Benzonase, MgCl) was added to each well; plates were then incubated on ice for 5 minutes. Cells were scraped using a pipette tip before being transferred to a fresh Eppendorf. Samples were spun at maximum speed in a benchtop centrifuge for 5 minutes at 4° C. and supernatant was then transferred to fresh tubes. Samples were stored at −80° C. until analysis.
Bicinchonininic acid (BCA) protein assay standards (2-0.125 mg/mL BSA) were prepared in advance. 6 μL of each standard was pipetted in duplicate into rows A and B of a 384-well assay plate. Test samples were diluted in lysis buffer (1:3-1:10) in a 384-well plate in duplicate. BCA Reagents were combined 50:1, Part A:Part B and 50 μL added to each well. Plates were incubated for 30 min at 37° C. in a plate incubator and read using a BCA protein 384 protocol on an EnSpire plate reader. Protein concentrations were calculated from a standard curve.
JESS Western Blot Protocol
Protein lysates were prepared using Protein Simple EZ standard pack reagents: 40 μL distilled H2O was added to a DTT tube (clear) and treated with 20 μL 10× sample buffer and 20 μL DTT to 5×MM tube (pink). 20 μL dH2O was added to biotinylated ladder tube (green).
Test samples were prepared by dilution to the required concentration (0.1 mg/mL) in 0.1× sample buffer. 1.25 μL 5× fluorescent master mix from the EZ standard pack was added to 5 μL sample for each lane to be loaded (e.g. 2.5 μL+10 μL if loading same sample into 2 wells). Samples were vortexed, briefly spun down and heated at 95° C. for 5 min in a PCR machine then vortexed again and briefly spun down before loading onto JESS cassettes (catalogue No: SM-W004) according to manufacturer's instructions (https://www.proteinsimple.com/technical_library.html?product=simplewestern&def_list=list). Protein expression was determined by the peak area of the target protein signal. Peak area of the target protein was normalised to peak area of the loading control (actin) and to DMSO control.

remaining activity at 1 µM | Structure (SMILES)
< 10% | Cc1ncsc1-c1ccc(CNC(=O)[C@@H]2C[C@@H](O)CN2C(=O)[C@@H](NC(=O)CCCCCCC(=O)N2CCN(Cc3ccc4c(c3)CN(C(=O)c3c(O)cc(O)c(C)c3OCC3CCCCC3)C4)CC2)C(C)(C)C)cc1 [Example 27, (2S,4R)-1-[(2S)-2-[[8-[4-[[2-[2-(Cyclohexylmethoxy)-4,6-dihydroxy-3-methyl-benzoyl]isoindolin-5-yl]methyl]piperazin-1-yl]-8-oxo-octanoyl]amino]-3,3-dimethyl-butanoyl]-4-hydroxy-N-[[4-(4-methylthiazol-5-yl)phenyl]methyl]pyrrolidine-2-carboxamide]
< 10% | Cc1ncsc1-c1ccc(CNC(=O)[C@@H]2C[C@@H](O)CN2C(=O)[C@@H](NC(=O)CCCCCCCC(=O)N2CCN(Cc3ccc4c(c3)CN(C(=O)c3c(O)cc(O)c(C)c3OCC3CCCCC3)C4)CC2)C(C)(C)C)cc1 [Example 28, (2S,4R)-1-[(2S)-2-[[9-[4-[[2-[2-(Cyclohexylmethoxy)-4,6-dihydroxy-3-methyl-benzoyl]isoindolin-5-yl]methyl]piperazin-1-yl]-9-oxo-nonanoyl]amino]-3,3-dimethyl-butanoyl]-4-hydroxy-N-[[4-(4-methylthiazol-5-yl)phenyl]methyl]pyrrolidine-2-carboxamide]
10 to 25% | Cc1c(O)cc(O)c(C(=O)N2Cc3ccc(CN4CCN(CCOCCOCCOCCNc5ccc6c(c5)C(=O)N(C5CCC(=O)NC5=O)C6=O)CC4)cc3C2)c1OCc1ccccc1 (stereo not drawn) [Example 13, 5-((2-(2-(2-(2-(4-((2-(2-(Benzyloxy)-4,6-dihydroxy-3-methylbenzoyl)isoindolin-5-yl)methyl)piperazin-1-yl)ethoxy)ethoxy)ethoxy)ethyl)amino)-2-(2,6-dioxopiperidin-3-yl)isoindoline-1,3-dione]
10 to 25% | Cc1c(O)cc(O)c(C(=O)N2Cc3ccc(CN4CCN(CCOCCOCCOCCNc5cccc6c5C(=O)N(C5CCC(=O)NC5=O)C6=O)CC4)cc3C2)c1OCc1ccccc1 (stereo not drawn) [Example 1, 4-((2-(2-(2-(2-(4-((2-(2-(Benzyloxy)-4,6-dihydroxy-3-methylbenzoyl)isoindolin-5-yl)methyl)piperazin-1-yl)ethoxy)ethoxy)ethoxy)ethyl)amino)-2-(2,6-dioxopiperidin-3-yl)isoindoline-1,3-dione]
10 to 25% | Cc1c(O)cc(O)c(C(=O)N2Cc3ccc(CN4CCN(CCOCCOCCOCCOc5cccc6c5CN(C5CCC(=O)NC5=O)C6=O)CC4)cc3C2)c1OCc1ccccc1 (stereo not drawn) [Example 14, 3-(4-(2-(2-(2-(2-(4-((2-(2-(Benzyloxy)-4,6-dihydroxy-3-methylbenzoyl)isoindolin-5-yl)methyl)piperazin-1-yl)ethoxy)ethoxy)ethoxy)ethoxy)-1-oxoisoindolin-2-yl)piperidine-2,6-dione]
< 10% | Cc1ncsc1-c1ccc(CNC(=O)[C@@H]2C[C@@H](O)CN2C(=O)[C@@H](NC(=O)CCCCCCCCCC(=O)N2CCN(Cc3ccc4c(c3)CN(C(=O)c3c(O)cc(O)c(C)c3OCC3CCCCC3)C4)CC2)C(C)(C)C)cc1 [Example 30, (2S,4R)-1-[(2S)-2-[[11-[4-[[2-[2-(Cyclohexylmethoxy)-4,6-dihydroxy-3-methyl-benzoyl]isoindolin-5-yl]methyl]piperazin-1-yl]-11-oxo-undecanoyl]amino]-3,3-dimethyl-butanoyl]-4-hydroxy-N-[[4-(4-methylthiazol-5-yl)phenyl]methyl]pyrrolidine-2-carboxamide]
